Test results as given in paper PMC7482398 (Molecular Pharmaceutics, 2020).
Where two headings read alike, the source gives them in different places.

Columns and labels:
Salmonella typhimurium = Salmonella typhimurium mutation test; cited from earlier work
Sprague Dawley rats = conditions: male and female Sprague Dawley rats, 2.5 mg/kg body weight, 14 days of observation; cited from earlier work
Escherichia coli = Escherichia coli mutation test; cited from earlier work
[1] = rhesus monkey, in vivo
[2] = cited from earlier work
[3] = rats, 30 min after tracer injection; cited from earlier work
[4] = tested on: P-gp function at the blood–brain barrier; conditions: rhesus monkey, in vivo
P-gp = conditions: cited from earlier work
P-gp function at the BBB = conditions: cited from earlier work
[5] = after P-gp inhibition, tariquidar 8 mg/kg i.v. 30 min before PET

| SMILES | mutagenic activity (Salmonella typhimurium) | toxicity (Sprague Dawley rats) | mutagenic activity (Escherichia coli) | plasma radioactivity representing the parent tracer [1] [%] | difference in biological T1/2 and Ke between baseline and after-inhibition scans ([1]; 8 mg/kg) | log D [2] | parent [18F]MC225 still available in plasma [3] [%] | change in K1 between baseline and after-inhibition [4] | increase of whole brain VT from 10 min to 91-min data [4] [%] | VT (brain uptake at the baseline) (P-gp; mice and rats, baseline) | transporter selectivity (P-gp vs BCRP) (P-gp; ref Savolainen et al. (2017), 14) | K1 rats (P-gp function at the BBB; [5]) | VT rats (P-gp function at the BBB; [5]) | K1 rats (P-gp function at the BBB; baseline scans) [mL/mL/min] | VT rats (P-gp function at the BBB; baseline scans) | increase in K1 after tariquidar compared with baseline (P-gp function at the BBB; rats) | increase in VT after tariquidar compared with baseline (P-gp function at the BBB; rats) | whole brain K1 higher in tariquidar-treated rats than in control rats (P-gp function at the BBB; rats) [%] | whole brain VT higher in tariquidar-treated rats than in control rats (P-gp function at the BBB; rats) [%] |
| --- | --- | --- | --- | --- | --- | --- | --- | --- | --- | --- | --- | --- | --- | --- | --- | --- | --- | --- | --- |
| COc1cc2c(cc1OC)CN(CCCC1CCCc3c(OCCF)cccc31)CC2 (stereo not shown) [MC225, 5-(1-(2-fluoroethoxy))-[3-(6,7-dimethoxy-3,4-dihydro-1H-isoquinolin-2-yl)-propyl]-5,6,7,8-tetrahydronaphthalen] | did not reveal any mutagenic activity | did not cause toxicity | did not reveal any mutagenic activity |  |  |  |  |  |  |  |  |  |  |  |  |  |  |  |  |
| COc1cc2c(cc1OC)CN(CCCC1CCCc3c(OCC[18F])cccc31)CC2 (stereo not shown) [[^18F]MC225] |  |  |  | 50 | did not find significant differences | 3.0 | 24 | 42–44% | 165 | 6.6–11 | selectively transported by P-gp and not by BCRP | 0.81 | 20 | 0.12 | 7.7 | 6–11 fold | 2–4 fold | 575 | 159 |
